Source: US10512641B2, “Chloroquine induction par-4 and treatment of cancer” (University of Kentucky Research Foundation, priority 2015, dated 2019)

Tests used:
[1] = system: Par-4; assay: Par-4 secretion in wild type or p53-null MEFs, Western blot; assay type: cell-based, mouse; settings: CQ 25 μM, Arylquin-1, Nutlin-3a 10 μM, 24 h
[2] = system: Par-4; settings: Burikhanov et al. (2014); cited from earlier work
[3] = system: Par-4; assay: ICC analysis of Par-4 localization in Rab8b coated vesicles; assay type: cell-based
Protocol: An immunocytochemical (ICC) analysis was performed to determine the localization of Par-4 in Rab8b coated vesicles.

[4] = system: Par-4; assay: BFA sensitivity of CQ-induced Par-4 in MEFs; assay type: cell-based, mouse; settings: MEFs pre-treated with BFA 10 μg/ml 30 minutes, then CQ 50 μM 5 h
Text: (§4) The CM and lysates were examined by Western blot analysis with the indicated antibodies.

[5] = system: Par-4; assay: Par-4 secretion in conditioned medium of prostate and lung cancer cell lines, Western blot; assay type: cell-based, human; settings: prostate cancer cells LNCaP, C4-2B, DU145, PC-3; CQ 1-100 μM, 24 h
Text: (§1) The conditioned medium (CM), as well as the whole-cell lysates were subjected to Western blot analysis with the antibodies specific for Par-4, Collagen (Col1A1), albumin, or actin. Col1A1 served as a loading control for protein secretion, as it is generally unchanged in response to the treatments. The samples were also subjected to SDS/PAGE and Coomassie blue staining to determine albumin levels in serum from the CM as another loading control.

[6] = system: p53
[7] = system: p53; settings: MEFs, CQ 25 μM, 24 h
[8] = system: Par-4; assay: Par-4 mRNA by qRT-PCR in MEFs; assay type: cell-based, mouse; settings: CQ 25 μM, 24 h, normalized to GAPDH
Text: The data were normalized relative to a GAPDH control. (see FIG. 8C).

[9] = system: H460 or LLC1 cells; assay: Subcutaneous H460 or LLC1 tumor xenografts in nude mice; assay type: in vivo, mouse; settings: LLC1- or H460-derived flank tumors, CQ 25 mg/kg IP once daily
[10] = system: Par-4; assay: Par-4 secretion in conditioned medium of MEFs, Western blot; assay type: cell-based, mouse; settings: wild type (p53+/+) MEFs; CQ 1-100 μM, 24 h
Text: as §1

[11] = system: A549 lung cancer cells; settings: A549 cells, 0, 2, 4 Gy, CQ 10 μM or 20 μM
[12] = system: UACA; assay: UACA and NF-κB-regulated gene expression, Western blot; assay type: cell-based; settings: for expression of UACA: 24 h
Text: as §4

[13] = system: Mel 1617 and Mel 1617BR melanoma cancer cells; settings: CQ 1 μM or 5 μM, 0 and 4 Gy
[14] = system: cancer cells; assay: Apoptosis (ICC for active caspase-3) of cells exposed to CQ-treated MEFs or their CM; assay type: cell-based, human
Protocol: After 24 h, the cells were subjected to immunocytochemistry (ICC) for active caspase-3 and apoptotic cells were scored under a fluorescent microscope.
After 24 h, the cells were scored for apoptosis.
A total of three independent experiments were performed; and approximately 500 cells were scored in each experiment for apoptosis under a fluorescent microscope.

[15] = system: Par-4; assay: Par-4 secretion in conditioned medium of normal human cells, Western blot; assay type: cell-based; settings: normal human PrSC, PrEC, HEL, HBEC; CQ 1-100 μM, 24 h
Text: as §1

[16] = system: Rab8b; assay: Rab8b and Rab8a expression (protein, real-time PCR); assay type: cell-based
Protocol: (§2) Testing was performed to determine whether the expression of Rab genes containing putative p53 binding sites in their promoter region were essential for Par-4 secretion.
The guardian of the genome, p53 binds to a consensus motif 5′-PuPuPuC4(A/T)(A/T)G7PyPyPy

[17] = system: Par-4; assay: Par-4 secretion in Rab8b-null and Rab8b reconstituted MEFs; assay type: cell-based, mouse
Protocol: as §2

[18] = system: LLC1 cells; assay: Apoptosis of LLC1 cells by CM from CQ-treated MEFs; assay type: cell-based, mouse; settings: CQ 20 μM, 24 h; not with Par-4-/- MEFs
Protocol: After 24 h, the cells were scored for apoptosis. *P<0.0001 by the Student's t-test.

[19] = system: cancer cells; assay: Ex vivo apoptosis of cancer cells by post-HCQ patient serum; assay type: cell-based, human; settings: PC-3, H460, HOP92, H1299; 20% serum, 24 h; relative to pre-HCQ serum
Protocol: (§3) Aliquots of pre-HCQ or post-HCQ treatment serum samples from the patient were transferred to cancer cell cultures (20% final concentration). After 24 h, the cells were scored for apoptosis by ICC for active caspase-3. Fetal bovine serum (FBS, 10%) was used as an additional control. An asterisk (*) indicates statistical significance (P<0.001) by the Student's t-test. […] Importantly, apoptosis of cancer cells by post-treatment serum from the patient was neutralized by the Par-4 antibody (P) or GRP78 antibody (G), but not by control antibody (C) (FIG. 2E).

[20] = system: Par-4; assay: Par-4 in serum of renal cell carcinoma patients given HCQ, Western blot; assay type: in vivo, human
Protocol: Serum samples were collected from renal cell carcinoma patients who were given safe oral doses (400 mg daily for 2-weeks) of HCQ pre-operatively at the University of Pittsburgh, as part of a clinical trial in 2010-2011. Pre-HCQ treatment and post-HCQ treatment serum samples were collected and frozen. In 2013-2014, they were processed by Western blot analysis.
as §3

[21] = system: Par-4; assay: Par-4 secretion from MEFs treated with chloroquine, curcumin, ibuprofen or combinations; assay type: cell-based, mouse; settings: 24 h
Protocol: To determine whether curcumin or ibuprofen enhanced the secretion of Par-4 in cells treated with chloroquine, MEFs were treated with chloroquine (25 μM), curcumin (5 μM and 10 μM) or ibuprofen (500 μM or 750 μM) or combinations of chloroquine and curcumin or ibuprofen for 24 hours at 37° C.
as §1, with “lysates,” for “lysates”

## CN(C)c1ccc2cc(-c3ccccc3F)c(N)nc2c1 [Arylquin-1]
[1]
  Par-4 secretion: robust induction of Par-4 secretion
[2]
  secretion of Par-4 from normal cells in mice: can increase secretion of Par-4

## C[C@H]1CCC/C=C/[C@@H]2C[C@H](O)C[C@H]2[C@H](O)/C=C/C(=O)O1 [BFA]
[3]; CQ-treated cells plus BFA
  entry of Par-4 into Rab8b vesicles: prevented Par-4 from entering the Rab8b vesicles
[4]
  effect on CQ-induced Par-4 expression: CQ-induced Par-4 expression was inhibited

## CCN(CC)CCCC(C)Nc1ccnc2cc(Cl)ccc12 (stereo not drawn) [CQ, chloroquine diphosphate]
[5]
  Par-4 secretion: neither induced Par-4 secretion
[6]; MEFs and normal mouse lung tissues
  p53-responsive genes p21 and PIG3: upregulation of p53-responsive genes p21 and PIG3
[6]; cancer cells
  p53 induction: neither induced p53
[7]
  p53-dependent transcription: increased p53-dependent transcription
[8]
  Par-4 RNA level: did not induce Par-4 at the RNA level
[3]; relative to vehicle
  co-localization of Par-4 with Rab8b containing vesicles: increase in the co-localization
[9]
  growth of subcutaneous tumor xenografts (tumor volume): failed to inhibit the growth
[10]
  secretion of Par-4 in the CM: dose-dependent secretion of Par-4
[11]
  inhibition of growth and proliferation, radiation plus CQ: greater than additive effect
[12]; MEF and HEL, CQ 25 μM
  expression of UACA: inhibited the expression of UACA
[12]; cancer cells
  UACA downregulation: failed to downregulate UACA
[12]; p53-dependent, wild type vs p53-/- MEFs, CQ 25 μM
  expression of UACA and NF-κB-regulated genes cIAP1 and XIAP: inhibited the expression of UACA and NF-κB-regulated genes cIAP1 and XIAP
[12]; p53 null MEFs, CQ 25 μM
  expression of UACA: not p53 null MEFs
[13]
  inhibition of growth and proliferation, CQ plus ionizing radiation: greater than additive effect
[14]; DU145, A549 cells (internal control), CQ 20 μM
  apoptosis of Par-4-resistant cancer cells with CQ-treated Par-4+/+ MEFs: resistant to apoptosis
[14]; PC-3, H460, H1299, HOP92, KP7B cells, CQ 20 μM, not with Par-4-/- MEFs
  apoptosis of cancer cells co-cultured with CQ-treated Par-4+/+ MEFs: sensitive to apoptosis
[14]; inhibited by Par-4 antibody or GRP78 antibody
  cancer cell apoptosis by CM of CQ-treated Par-4+/+ MEFs: Cancer cell apoptosis was also induced
[14]; normal HEL cells, CQ 20 μM
  apoptosis of normal cells co-cultured with CQ-treated Par-4+/+ MEFs: not normal HEL cells
[15]
  secretion of Par-4 in the CM: dose-dependent secretion of Par-4
[16]; cancer cells
  Rab8b induction: not in cancer cells
[16]; normal human cells
  Rab8b induction: induced Rab8b in normal human cells
[16]; p53 wild type cells
  Rab8b protein levels: enhanced Rab8b protein levels
[16]; quantitative real-time PCR
  Rab8b mRNA: induced Rab8b mRNA in a p53-dependent manner
[16]; wild type MEFs
  Rab8a expression: not Rab8a expression
  Rab8b expression: induced Rab8b expression
[17]; Rab8b-null MEF cells (not Rab8a-null MEF cells)
  induction of Par-4 secretion: failed to show induction of Par-4 secretion
[17]; Rab8b-null MEFs transfected with mouse Rab8b expression construct
  Par-4 secretion: induced Par-4 secretion in Rab8b reconstituted cells
[18]
  apoptosis of LLC1 cells by CM from CQ-treated Par-4+/+ MEFs: induced apoptosis of LLC1 cells

## CCN(CCO)CCCC(C)Nc1ccnc2cc(Cl)ccc12 (stereo not drawn) [HCQ, hydroxychloroquine]
[19]
  ex vivo apoptosis of cancer cells with post-HCQ treatment serum: underwent apoptosis
[20]; one renal cell carcinoma patient, HCQ 400 mg daily for 2 weeks
  induction of Par-4 in patient serum following HCQ treatment: ~3 fold
[20]; renal cell carcinoma patients, HCQ 400 mg daily oral for 2 weeks, post vs pre treatment
  Par-4 levels in patient serum: elevated levels of Par-4 relative to pre-treatment levels

## COc1ccc(C2=N[C@@H](c3ccc(Cl)cc3)[C@@H](c3ccc(Cl)cc3)N2C(=O)N2CCNC(=O)C2)c(OC(C)C)c1 [Nutlin-3a]
[1]
  Par-4 secretion: induced Par-4 secretion in a p53-dependent manner
[2]
  secretion of Par-4 from normal cells in mice: can increase secretion of Par-4

## O=C(Nc1cc(Cl)cc2c1[nH]c1cnccc12)c1cccnc1 [PS-1145]
[14]; A549 cells pretreated with PS-1145 10 μM, 24 h
  apoptosis of A549 cells by CM from CQ-treated MEFs: sensitized to apoptosis
[2]
  secretion of Par-4 from normal cells in mice: can increase secretion of Par-4

## COc1cc(/C=C/C(=O)CC(=O)/C=C/c2ccc(O)c(OC)c2)ccc1O [curcumin]
[21]; curcumin alone 5 μM and 10 μM
  Par-4 secretion: enhances Par-4 secretion

## CC(C)Cc1ccc(C(C)C(=O)O)cc1 (stereo not drawn) [ibuprofen]
[21]; ibuprofen 750 μM with chloroquine 25 μM
  secretion of Par-4 compared with chloroquine alone: significantly improves the secretion of Par-4
[21]; ibuprofen alone 500 μM or 750 μM
  production or secretion of Par-4: does not enhance the production or secretion of Par-4
